Measurements reported in patent publication US10596169B2, “Cancer treatment with combination of plinabulin and taxane” (BeyondSpring Inc., priority 2013, dated 2020).

Key:
[1] = system: MV522 human non-small cell lung tumor xenograph model; assay: Example 1: MV522 xenograft, NPI-2358 single agent and with docetaxel (TGI/TGD); format: in vivo, athymic nu/nu mice
Procedure: In vivo evaluation of plinabulin (NPI-2358) as a single agent and in combination with docetaxel in the MV522 human non-small cell lung tumor xenograph model in athymic nu/nu mice
The objective of the example was to determine potential additive or synergistic effects of plinabulin in combination with docetaxel in the MV522 model by exploring the scheduling of the drug combination explored by administering one of the agents 2 hours after the first drug was given. Significant endpoints for this experiment included mean tumor growth inhibition (TGI) or regression, tumor growth delay (TGD) in large tumor, weight loss, and mortality.
(§1) Female nude mice (Hsd: Athymic Nude-Foxn1^nu) between 5 and 6 weeks of age weighing approximately 20 grams were obtained from Harlan, Inc. (Madison, Wis.). MV522 is a conventional human NSC metastatic lung tumor cell line (U.S. Pat. No. 7,700,615 or 7,629,380). Animals were injected subcutaneously (SC) with approximately 1×10^7 MV522 cells harvested from tissue culture. When tumors grew to approximately 105 cubic millimeters (mm^3) in size (3 days following implantation), animals were pair-matched by tumor size into treatment and control groups; each treatment group contained eight mice. Animals were ear-tagged and followed individually throughout the experiment.
(§2) Initial doses were administered on Day 1 following pair-matching. The experiment was carried out as a tumor growth inhibition (TGI) and tumor growth delay (TGD) study. Group 1 endpoint was when tumor volume reached 1.2 cm^3 (TGI) and the treated groups endpoint was when each individual animal's tumor volume reached 1.5 cm^3 (TGD). […] To serve as negative controls, NPI-2358 vehicle and docetaxel vehicle were injected IP on a 2×WKLY×3 schedule and IV on a Q2D×3 schedule, respectively. Docetaxel was administered by intravenous (IV) injection via tail vein at 15 mg/kg once every other day for three treatments (Q2D×3) or at 25 mg/kg on a Q7D×3 schedule (every 7 day for three treatment). Docetaxel and docetaxel vehicle were administered two hours prior to NPI-2358 vehicle and NPI-2358, respectively, in Groups 7-9 and 12-14. For Groups 10, 11, 15, and 16, NPI-2358 was given two hours prior to docetaxel.
Mice were weighed and caliper tumor measurements taken. Tumor growth inhibition (TGI) values were calculated for each group containing treated animals using the formula below: […]
Animals experiencing complete tumor responses or animals experiencing technical or drug-related deaths were censored from final TGI calculations; however animals experiencing partial tumor responses were included in the final TGI calculations. […] TGI values for each treatment group are reported at study completion; these calculations are based on the final study day.
This arm of the study was ended on Day 74 at the sponsor's request. […] Upon TGD study completion, a Median Day of Sacrifice (MDS) was calculated for the control (C) and each treatment (T) group and used to determine tumor growth delay (T-C) using the following equations: MDS=Median [ΣIDS] T−C=MDSTreated−MDSControl
Where IDS (Individual Day of Sacrifice) is the day when each animal reached its tumor volume endpoint (1.5 cm^3); only animals reaching this endpoint were included in TGD calculations. Gross or net log10 cell kill for each treatment group was determined using the following equations: […]

[2] = Procedure: as §1, §2
Individual and group mean weights ±SD and percent weight change were recorded twice weekly until study completion beginning Day 1. Group weights on Day 42 and weight nadir values are reported.
Animals were observed twice weekly for general moribundity and daily for mortality.

[3] = G5: NPI-2358 3.75 mg/kg IP 2xWKLYx3

In the case of `CC(C)(C)c1[nH]cnc1/C=c1\[nH]c(=O)/c(=C/c2ccccc2)[nH]c1=O` [NPI-2358], the “#CR (Day 25)” value [1, 3] is reported as 0/0, the “#CR (TGD study)” value [1, 3] is reported as 0/0 and the “#LTS (long-term survivors)” value [1, 3] is reported as 0. The “#PR (Day 25)” value [1, 3] was 0/0, the “#PR (TGD study)” value [1, 3] was 0/0 and the “% TGI” value [1, 3] was 2%. For the same compound, the “Final tumor volume (Day 25) mean ± SEM” value [1, 3] was 1347 ± 82 mm^3, the Log10 cell kill [1, 3] was 0.0 and the “T-C (tumor growth delay)” value [1, 3] was 0. For the same compound, the “MDS day ± SD” value ([1]; G5: NPI-2358 3.75 mg/kg IP 2xWKLYx3, endpoint 1.5 cm^3) was 29 ± 2 days, the “Tumor volume / tumor burden compared to vehicle control” value ([1]; single agent, Example 1) was “slight decrease in tumor volume” and the “Final weight (Day 25) % change” value [2, 3] was “+15%”. For the same compound, the “Final weight (Day 25) mean ± SD” value [2, 3] was 23 ± 1 g, the “Weight nadir % change” value [2, 3] was 0% and the Weight nadir day [2, 3] was 1. The Animal weight loss ([2]; single agent groups, Example 1, given doses and schedule) was “No significant animal weight loss”.
